Values joined by “and” are separate entries in the source; they are usually repeats but may differ in a detail not shown here. Equal entries are not always repeated. Where two headings read alike, the source gives them in different places.
Legend:
[1] = molecular target: T1, DPP1 in HL-60 cells (Homo sapiens, UniProt P53634); assay: DPP1 Cell IC50 assay; format: cell-based; set-up: host or cells: HL-60 cells; details: 60 min pre-incubation, H-Gly-Phe-AFC substrate, average of n runs
Outline: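 HL-60 cells in PBS (5×10^5 live cells per mL) pre-incubated with compound (0.5% DMSO) 60 min at 37° C, 5% CO2, then H-Gly-Phe-AFC substrate (500 μM stock) added for 30 min. Fluorescence at 400/505 nm; % inhibition vs vehicle wells, IC50 from four-parameter logistic fit.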

[2] = molecular target: T2, human DPP1 enzyme (Homo sapiens, UniProt P53634); assay: Human DPP1 Enzyme IC50 Assay; format: biochemical; set-up: was first proteolytically processed into its mature form using recombinant human cathepsin L; purchased R&D Systems
Outline: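 Recombinant human DPP1, pre-activated with cathepsin L (pH 4.5), was preincubated with compound 10 min at 37 °C in MES pH 6.0, 50 mM NaCl, 5 mM DTT, 1% DMSO. Cleavage of 400 μM (final) H-Gly-Arg-AMC followed by fluorescence (350/450 nm) over 90 min at 37 °C; IC50 from four-parameter logistic fit versus no-compound control.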
Target sequence in this assay (P53634 25-134 limits assumed): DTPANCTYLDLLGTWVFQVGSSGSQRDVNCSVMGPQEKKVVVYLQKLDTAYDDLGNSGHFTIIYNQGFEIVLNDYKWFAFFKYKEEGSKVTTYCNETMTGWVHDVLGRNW
Target sequence in this assay (P53634 231-394 limits assumed): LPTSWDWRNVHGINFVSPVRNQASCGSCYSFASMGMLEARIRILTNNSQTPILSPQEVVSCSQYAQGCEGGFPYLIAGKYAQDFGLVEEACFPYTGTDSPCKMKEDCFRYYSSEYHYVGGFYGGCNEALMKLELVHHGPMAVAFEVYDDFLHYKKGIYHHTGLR
Target sequence in this assay (P53634 395-463 limits assumed): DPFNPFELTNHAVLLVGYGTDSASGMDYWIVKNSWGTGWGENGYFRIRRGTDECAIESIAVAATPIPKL

[3] = molecular target: T3, active mouse DPP1 enzyme (Mus musculus, UniProt P97821); assay: Mouse DPP1 Enzyme IC50 Assay; format: biochemical
T3 construct: Each subunit is composed of an N-terminal fragment, a heavy chain and a light chain; purchased R&D Systems
T3 sequence (P97821 25-134 limits assumed): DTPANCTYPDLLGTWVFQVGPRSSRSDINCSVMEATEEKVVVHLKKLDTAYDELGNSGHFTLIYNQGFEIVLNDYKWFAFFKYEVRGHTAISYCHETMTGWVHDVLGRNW
T3 sequence (P97821 231-393 limits assumed): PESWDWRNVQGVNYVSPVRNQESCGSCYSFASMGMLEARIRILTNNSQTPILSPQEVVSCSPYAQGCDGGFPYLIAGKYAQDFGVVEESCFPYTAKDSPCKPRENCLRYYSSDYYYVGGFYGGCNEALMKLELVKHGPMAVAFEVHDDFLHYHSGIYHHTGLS
T3 sequence (P97821 394-462 limits assumed): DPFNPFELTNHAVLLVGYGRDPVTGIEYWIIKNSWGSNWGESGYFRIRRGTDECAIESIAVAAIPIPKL
Procedure: Example 96: Mouse DPP1 Enzyme IC50 Assay
Test articles were applied to active mouse DPP1 enzyme (R&D Systems; Minneapolis, MN) in Assay Buffer (50 mM MES pH 5.5, 50 mM NaCl, 5 mM DTT) in a total reaction volume of 125 μL. 25 μL of compound in Assay Buffer plus […] was first added to 50 μL of active mouse DPP1 enzyme at a concentration of 62.5 pg/μL and allowed to pre-incubate for 10 minutes at 37° C. after which 50 μL of […] H-Gly-Arg-AMC substrate (Bachem; St. Torrance, CA) was added, giving final substrate concentration of 400 µM and a final DMSO concentration of […]. Substrate cleavage was measured for 90 minutes at 37° C., with fluorescence at Excitation/Emission 350/450 nm measured every 5 minutes. DPP1 concentration was interpolated based on its activity relative to a standard curve of recombinant active mouse DPP enzyme. IC50 values for each compound were calculated via the XLFit (IDBS Version 5.3.1.3) Add-On to Microsoft Excel using the four parameter fit equation y=(A+((B−A)/(1+((C/x)^D)))), which appears as equation number 205 (4 Parameter Logistic Model or Sigmoidal Dose-Response Model) in XLFit. Default constraints were used for each Parameter. IC50 was defined as the compound concentration at which 50% of enzyme activity was inhibited when compared to the no-compound control.
In Table 2, *** represent average IC50≤5 nM, ** represents average IC50 in the range of 5-20 nM, and * represents average IC50 in the range of ≥20 nM, where the designations were made solely based on the average value without taking into account of the standard deviations.

[4] = molecular target: T2, human DPP1 enzyme; assay: Human DPP1 Enzyme Single-Point Percent Inhibition Testing (HL-60 lysate); format: biochemical; set-up: A crude lysate of HL-60 cells (ATCC; Manassas, VA) was used as a source of human DPP1 enzyme; host or cells: HL-60 cells (crude lysate); details: final compound concentration of 10 nM, 400 μM H-Gly-Arg-AMC, n = 1
Outline: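 Enzyme source was HL-60 cell lysate in MES pH 6.0 buffer with NaCl and DTT, pre-incubated 10 min at 37° C with 10 nM compound (final, 1% DMSO). Cleavage of 400 μM H-Gly-Arg-AMC was followed at 350/450 nm over 90 min at 37° C, and percent inhibition was taken against vehicle wells.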
Target sequence in this assay (P53634 25-463): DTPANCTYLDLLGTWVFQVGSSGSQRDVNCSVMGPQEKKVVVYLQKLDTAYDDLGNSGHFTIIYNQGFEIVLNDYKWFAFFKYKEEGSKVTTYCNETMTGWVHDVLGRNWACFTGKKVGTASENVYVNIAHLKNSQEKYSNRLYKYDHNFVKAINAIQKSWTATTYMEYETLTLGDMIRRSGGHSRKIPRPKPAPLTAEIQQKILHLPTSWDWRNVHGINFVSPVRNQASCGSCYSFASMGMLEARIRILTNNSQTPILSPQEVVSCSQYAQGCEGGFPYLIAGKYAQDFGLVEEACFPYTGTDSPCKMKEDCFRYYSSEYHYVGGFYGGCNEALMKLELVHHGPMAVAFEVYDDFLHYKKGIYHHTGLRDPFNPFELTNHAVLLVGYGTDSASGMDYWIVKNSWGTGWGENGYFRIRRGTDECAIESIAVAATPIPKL

[5] = molecular target: T1, DPP1 in HL-60 cells; assay: DPP1 Cell Single-Point Percent Inhibition Testing; format: cell-based; set-up: host or cells: HL-60 cells; details: final compound concentration 5 nM, n = 1
Outline: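 HL-60 cells in unsupplemented RPMI preincubated 60 min at 37 °C with test article (5 nM final, 0.1% DMSO), then given cell-permeable H-Gly-Phe-AFC (100 μM final) for 30 min. Fluorescence at 400/505 nm; percent inhibition versus vehicle after subtracting cell-free background and 10 μM brensocatib non-specific signal.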

[6] = read-out: Avg. IC50 (DPP1 Cell IC50 value ranges)
[7] = activated recombinant human DPP1, 400 μM H-Gly-Arg-AMC, 10 minutes pre-incubation at 37° C., pH 6.0, average of n runs, read-out: Avg. IC50 (Human DPP1 enzyme IC50 value ranges)
[8] = active mouse DPP1 enzyme, H-Gly-Arg-AMC substrate, 10 minutes pre-incubation at 37° C., pH 5.5, average of n runs, read-out: Avg. IC50 (Mouse DPP1 enzyme IC50 value ranges)

T1 sequence (P53634 25-463): as above

Structure (SMILES) | IC50 ([1]; Avg. IC50 (DPP1 Cell IC50 value ranges)) [µM] | IC50 [2] [µM] | IC50 [3] [µM] | IC50 [1, 6] [µM] | IC50 [2, 7] | IC50 [3, 8] [µM] | inhibition at 0.01 µM [4] [%] | inhibition at 0.005 µM [5] [%]
N#C[C@H](Cc1cc2c(cc1F)-c1cc(C3COC3)c(F)cc1CO2)NC(=O)[C@@H]1CNCCCO1 [Compound B2, (2S)—N-{1-cyano-2-[2,8-difluoro-9-(oxetan-3-yl)-6H-benzo[c]chromen-3-yl]ethyl}-1,4-oxazepane-2-carboxamide] | 0.001 to 0.0025 | 0.005 to 0.015 | 0.005 to 0.02 |  |  |  |  | 
N#C[C@H](Cc1ccc(-c2ccc(C(F)(F)F)cc2)cc1)NC(=O)[C@@H]1CNCCCO1 [Compound 12, (2S)—N-[(1S)-1-cyano-2-[4′-(trifluoromethyl)-[1,1′-biphenyl]-4-yl]ethyl]-1,4-oxazepane-2-carboxamide] |  |  |  | > 0.0025 | > 0.015 µM | > 0.02 |  | 
CCN1C(=O)Cc2ccc(-c3ccc(C[C@@H](C#N)NC(=O)[C@@H]4CNCCCO4)cc3)cc21 [Compound 32, (2S)—N-[(1S)-1-cyano-2-[4-(1-ethyl-2-oxo-3H-indol-6-yl)phenyl]ethyl]-1,4-oxazepane-2-carboxamide] |  |  |  |  |  | > 0.02 |  | 
N#C[C@H](Cc1ccc(-c2ccc3c(n2)CCCN3)cc1)NC(=O)[C@@H]1CNCCCO1 [Compound A10, (2S)—N-[(1S)-1-cyano-2-[4-(5,6,7,8-tetrahydro-1,5-naphthyridin-2-yl)phenyl]ethyl]-1,4-oxazepane-2-carboxamide] |  |  |  | > 0.0025 | > 0.015 µM | > 0.02 |  | 
N#CC(Cc1cc2c(cc1F)-c1ccc(F)cc1CO2)NC(=O)[C@@H]1CNCCCCO1 (mixture of isomers) [Compound B16, (2S)—N-(1-cyano-2-{2,8-difluoro-6H-benzo[c]chromen-3-yl}ethyl)-1,4-oxazocane-2-carboxamide] |  |  |  | > 0.0025 | > 0.015 µM | > 0.02 |  | 
N#Cc1ccc(-c2ccc(C[C@@H](C#N)NC(=O)[C@@H]3CNCCCO3)cc2)cc1C1CC1 [Compound 8, (2S)—N-[(1S)-1-cyano-2-{4′-cyano-3′-cyclopropyl-[1,1′-biphenyl]-4-yl}ethyl]-1,4-oxazepane-2-carboxamide] |  |  |  | > 0.0025 | > 0.015 µM | > 0.02 |  | 
N#Cc1ccc2c(c1)COc1cc(CC(C#N)NC(=O)[C@@H]3CNCCCCO3)c(F)cc1-2 (single isomer, unassigned) [Compound B9] |  |  |  | 0.001 to 0.0025 | 0.005 to 0.015 µM and > 0.015 µM | 0.005 to 0.02 |  | 
CN1CCC2(CCc3cc(-c4ccc(C[C@@H](C#N)NC(=O)[C@@H]5CNCCCO5)cc4)ccc32)CC1 [Compound 26, (2S)—N-[(1S)-1-cyano-2-(4-{1′-methyl-2,3-dihydrospiro[indene-1,4′-piperidin]-5-yl}phenyl)ethyl]-1,4-oxazepane-2-carboxamide] |  |  |  | > 0.0025 | > 0.015 µM | > 0.02 |  | 
CN1CCN(S(=O)(=O)c2ccc(-c3ccc(C[C@@H](C#N)NC(=O)[C@@H]4CNCCCO4)c(F)c3)cc2)CC1 [Compound 21, (2S)—N-[(1S)-1-cyano-2-[3-fluoro-4′-(4-methylpiperazin-1-ylsulfonyl)-[1,1′-biphenyl]-4-yl]ethyl]-1,4-oxazepane-2-carboxamide] |  |  |  | > 0.0025 | > 0.015 µM | > 0.02 |  | 
N#Cc1ccc(-c2ccc(C[C@@H](C#N)NC(=O)[C@@H]3CNCCCO3)cc2)cc1C(F)(F)F [Compound 7, (2S)—N-[(1S)-1-cyano-2-[4′-cyano-3′-(trifluoromethyl)-[1,1′-biphenyl]-4-yl]ethyl]-1,4-oxazepane-2-carboxamide] |  |  |  | > 0.0025 | > 0.015 µM | > 0.02 |  | 
Cc1csc(-c2ccc(C[C@@H](C#N)NC(=O)[C@@H]3CNCCCO3)cc2)n1 [Compound 11, (2S)—N-[(1S)-1-cyano-2-[4-(4-methyl-1,3-thiazol-2-yl)phenyl]ethyl]-1,4-oxazepane-2-carboxamide] |  |  |  | > 0.0025 | > 0.015 µM | > 0.02 |  | 
CN1CCN(Cc2ccc(-c3ccc(C[C@@H](C#N)NC(=O)[C@@H]4CNCCCO4)cc3)cc2)CC1 [Compound 9, (2S)—N-[(1S)-1-cyano-2-{4′-[(4-methylpiperazin-1-yl)methyl]-[1,1′-biphenyl]-4-yl}ethyl]-1,4-oxazepane-2-carboxamide] |  |  |  | > 0.0025 | > 0.015 µM | > 0.02 |  | 
N#Cc1ccc2c(c1)COc1cc(CC(C#N)NC(=O)[C@@H]3CNCCCCO3)c(F)cc1-2 (stereo partly drawn) [Compound B7, (2S)—N-(1-cyano-2-(8-cyano-2-fluoro-6H-benzo[c]chromen-3-yl)ethyl)-1,4-oxazocane-2-carboxamide] |  |  |  | > 0.0025 | > 0.015 µM | > 0.02 |  | 
CN1CCC(n2ncc3ccc(-c4ccc(C[C@@H](C#N)NC(=O)[C@@H]5CNCCCO5)c(F)c4)cc32)CC1 [Compound A3, (2S)—N-[(1S)-1-cyano-2-{2-fluoro-4-[1-(1-methylpiperidin-4-yl)indazol-6-yl]phenyl}ethyl]-1,4-oxazepane-2-carboxamide] |  |  |  | > 0.0025 | 0.005 to 0.015 µM | > 0.02 |  | 
N#C[C@H](Cc1ccc(-c2ccc(S(F)(F)(F)(F)F)cc2)cc1)NC(=O)[C@@H]1CNCCCO1 [Compound 6, (S)—N—((S)-1-cyano-2-(4′-(pentafluoro-16-sulfaneyl)-[1,1′-biphenyl]-4-yl)ethyl)-1,4-oxazepane-2-carboxamide] |  |  |  | > 0.0025 | > 0.015 µM | > 0.02 |  | 
N#C[C@H](Cc1ccc(-c2ccc3c(c2)CCNC3=O)cc1)NC(=O)[C@@H]1CNCCCO1 [Compound A2, (2S)—N-[(1S)-1-cyano-2-[4-(1-oxo-3,4-dihydro-2H-isoquinolin-6-yl)phenyl]ethyl]-1,4-oxazepane-2-carboxamide] |  |  |  | > 0.0025 | > 0.015 µM | > 0.02 |  | 
CN1CCN(S(=O)(=O)c2ccc(-c3ccc(C[C@@H](C#N)NC(=O)[C@@H]4CNCCCO4)cc3)cc2)CC1 [Compound 20, (2S)—N-[(1S)-1-cyano-2-[4′-(4-methylpiperazin-1-ylsulfonyl)-[1,1′-biphenyl]-4-yl]ethyl]-1,4-oxazepane-2-carboxamide] |  |  |  | > 0.0025 | > 0.015 µM | > 0.02 |  | 
CN1CCC2(CC1)OC(=O)c1ccc(-c3ccc(C[C@@H](C#N)NC(=O)[C@@H]4CNCCCO4)cc3)cc12 [Compound 14, (2S)—N-[(1S)-1-cyano-2-(4-{1′-methyl-3-oxospiro[2-benzofuran-1,4′-piperidin]-6-yl}phenyl)ethyl]-1,4-oxazepane-2-carboxamide] |  |  |  | > 0.0025 | 0.005 to 0.015 µM | 0.005 to 0.02 |  | 
C[C@@H]1NC[C@@H](C(=O)N[C@H](C#N)Cc2ccc(-c3ccc4cnn(C)c4c3)cc2F)OC[C@@H]1O [Compound H31] |  |  |  | 0.001 to 0.0025 | 0.005 to 0.015 µM and > 0.015 µM |  | 40 to 66.7 | ≤ 76.5
